Key:
MTH1 = MTH1 (Homo sapiens, UniProt P36639); test: MTH1 enzymatic assay and IC50 value determination (malachite green, 96- and 384-well format); type: biochemical; details: hydrolysis of dGTP (100 μM), MTH1 6 nM, pyrophosphatase-coupled malachite green, 15 minutes at 22° C.
Experimental: MTH1 Enzymatic Assay and IC50 Value Determination
MTH1 catalyzes the hydrolysis of dGTP to dGMP and PPi. By coupling the reaction to pyrophosphatase added in excess PPi is converted to Pi that can be detected by using the malachite green assay reagent. Two different formats were used for IC50 determinations in the enzymatic assay, 96- and 384-well format. 96-Well Method:
Briefly, the compound to be analyzed is diluted in DMSO in a 1:3 dilution series generating 12 different compound concentrations giving a final DMSO concentration of 1% in the assay well. MTH1 diluted in assay buffer (100 mM Tris-acetate, 40 mM NaCl, 10 mM magnesium acetate, 1 mM DTT and 0.005% Tween 20) fortified with E. coli pyrophosphatase (0.2 U/ml) is added to a final concentration of 6 nM. dGTP diluted in assay buffer is added to a final concentration of 100 μM. The reaction mixture is incubated for 15 minutes at 22° C. To 100 μl reaction mixture, 25 μl Malachite green assay regent (0.095% Malachite green in 17% H2SO4, 1.5% Ammonium molybdate, 0.17% Tween 20) is added, followed by incubation with shaking for 15 minutes at 22° C. The absorbance of the assay plate is read at 630 nm using a Hidex Sense Multilabel plate reader. The IC50 value is determined by fitting a dose response curve to the data points using nonlinear regression analysis and the equation Y=Bottom+(Top−Bottom)/(1+10^((Log IC50−X)*HillSlope)), where Y is the read absorbance at 630 nm and X is log [compound].
The compounds to be tested are nano-dispensed, in 11 concentrations, directly in assay plates, with a final DMSO concentration <1%. The protocol and the reaction mixture are the same as for the 96-well assay, with a total reaction volume of 50 μl/well to which 10 μl of Malachite green reagent is added. All additions to the assay plates are made with multidrop.

cancer cell = test: Cell viability assay (resazurin); type: cell-based; details: 72 h; 3 days with compound, resazurin fluorescence; cell line not named
Experimental: The utility of the compounds of the present invention can be illustrated, for example, by their activity in vitro in the cancer cell clonogenic and/or viability assay described below. The link between activity in tumor cell clonogenic assay and anti-tumor activity in the clinical setting has been well established in the art (e.g. see ref Silverstini et al Stem Cells 1993, 11(6), 258-35).
Cells are seeded into 96 well plates (1000-3000 cells/well) in DMEM GlutaMAX™ or other suitable media dependent on cell line and incubated overnight in 5% CO2, 37° C. Thereafter cells are treated with compound or vehicle and left in incubator for 3 days until staining with resazurin. Cells are incubated in resazurin (diluted in suitable media) at 37° C. for 2 hours before measuring the fluorescence (Ex544/Em590).
The compounds to be tested are nano-dispensed in 11 concentrations, directly in 384-well cell plates, with a final DMSO concentration <1%. Cells are seeded in cell plates, pre-dispensed with compounds, 50 μl/well (600-1200 cells/well). After 3 days culture in 5% CO2, 37° C., resazurin diluted in PBS is added, 10 μl/well, and cells are incubated 3 hours before measuring fluorescence (Ex544/Em590).

Row | Structure (SMILES) | IC50 (MTH1) | IC50 (cancer cell)
1 | Cc1cccc(-c2cc(NCCNc3nccc(C(N)=O)n3)nc(N)n2)c1C [Example 16, 2-[(2-{[2-amino-6-(2,3-dimethylphenyl)pyrimidin-4-yl]amino}ethyl)amino]pyrimidine-4-carboxamide] | < 200 nM | < 500 nM
2 | CC(=O)Nc1ccc(CCNc2cc(-c3cccc(C)c3C)nc(N)n2)cc1 [Example 19, N-[4-(2-{[2-amino-6-(2,3-dimethylphenyl)pyrimidin-4-yl]amino}ethyl)phenyl]acetamide] | < 200 nM | < 500 nM
3 | Cc1cccc(-c2cc(NCCc3ccc(NS(C)(=O)=O)cc3)nc(N)n2)c1C [Example 20, N-[4-(2-{[2-amino-6-(2,3-dimethylphenyl)pyrimidin-4-yl]amino}ethyl)phenyl]methanesulfonamide] | < 200 nM | < 500 nM
4 | CNS(=O)(=O)c1ccc(NCCNc2cc(-c3cccc(C)c3C)nc(N)n2)cc1 [Example 21, 4-[(2-{[2-amino-6-(2,3-dimethylphenyl)pyrimidin-4-yl]amino}ethyl)amino]-N-methylbenzene-1-sulfonamide] | < 200 nM | < 500 nM
5 | CC(=O)Nc1ccc(NCCNc2cc(-c3cccc(C)c3C)nc(N)n2)cc1C [Example 22, N-{4-[(2-{[2-amino-6-(2,3-dimethylphenyl)pyrimidin-4-yl]amino}ethyl)amino]-2-methylphenyl}acetamide] | < 200 nM | < 500 nM
6 | Cc1cccc(-c2cc(NCCNc3ccc4c(c3)NC(=O)CO4)nc(N)n2)c1C [Example 23, 6-[(2-{[2-amino-6-(2,3-dimethylphenyl)pyrimidin-4-yl]amino}ethyl)amino]-3,4-dihydro-2H-1,4-benzoxazin-3-one] | < 200 nM | < 500 nM
7 | Cc1cccc(-c2cc(NCCNc3ccccc3C(N)=O)nc(N)n2)c1C [Example 24, 2-[(2-{[2-amino-6-(2,3-dimethylphenyl)pyrimidin-4-yl]amino}ethyl)amino]benzamide] | < 200 nM | < 500 nM
8 | Cc1cccc(-c2cc(NCCOc3ccc(C(N)=O)cn3)nc(N)n2)c1C [Example 26, 6-(2-{[2-amino-6-(2,3-dimethylphenyl)pyrimidin-4-yl]amino}ethoxy)pyridine-3-carboxamide] | < 200 nM | < 500 nM
9 | CCOC(=O)c1ccc(NCCNc2cc(-c3cccc(C)c3C)nc(N)n2)nc1 [Example 28, ethyl 6-[(2-{[2-amino-6-(2,3-dimethylphenyl)pyrimidin-4-yl]amino}ethyl)amino]pyridine-3-carboxylate] | < 200 nM | < 500 nM
10 | Cc1cccc(-c2cc(NCCNc3ccc(S(N)(=O)=O)c(C(F)(F)F)c3)nc(N)n2)c1C [Example 29, 4-[(2-{[2-amino-6-(2,3-dimethylphenyl)pyrimidin-4-yl]amino}ethyl)amino]-2-(trifluoromethyl)benzene-1-sulfonamide] | < 200 nM | < 500 nM
11 | Cc1cccc(-c2cc(NCCNc3ccc(C(N)=O)cc3)nc(N)n2)c1C [Example 30, 4-[(2-{[2-amino-6-(2,3-dimethylphenyl)pyrimidin-4-yl]amino}ethyl)amino]benzamide] | < 200 nM | < 500 nM
12 | CCOC(=O)Nc1ccc(CCNc2cc(-c3cccc(C)c3C)nc(N)n2)cc1 [Example 31, ethyl N-[4-(2-{[2-amino-6-(2,3-dimethylphenyl)pyrimidin-4-yl]amino}ethyl)phenyl]carbamate] | < 200 nM | < 500 nM
13 | COc1ccc(NCCNc2cc(-c3cccc(C)c3C)nc(N)n2)cc1S(N)(=O)=O [Example 32, 5-[(2-{[2-amino-6-(2,3-dimethylphenyl)pyrimidin-4-yl]amino}ethyl)amino]-2-methoxybenzene-1-sulfonamide] | < 200 nM | < 500 nM
14 | Cc1c(Cl)cccc1-c1cc(NCCNc2ccc3c(c2)NC(=O)CO3)nc(N)n1 [Example 35, 6-[(2-{[2-amino-6-(3-chloro-2-methylphenyl)pyrimidin-4-yl]amino}ethyl)amino]-3,4-dihydro-2H-1,4-benzoxazin-3-one] | < 200 nM | < 500 nM
